Experimental data taken from ChEMBL document CHEMBL1122453, “Structure-activity relationships in the antiinflammatory steroids: a pattern-recognition approach” (1983).

Species: Homo sapiens
Test: Potency relative to fluocinolone 16,17-acetonide in the human vasoconstictor test
Format: functional

**Q.** With `CC(=O)OCC(=O)[C@@]1(O)[C@H](C)C[C@H]2[C@@H]3CCC4=CC(=O)C=C[C@]4(C)[C@@]3(F)[C@@H](O)C[C@@]21C` [DEXAMETHASONE ACETATE] as the compound, how does the Potency read?
**A.** 8

**Q.** With `CCCCC(=O)OCC(=O)[C@@]1(O)C(C)CC2C3CCC4=CC(=O)C=CC4(C)[C@@]3(F)C(O)CC21C` (stereo partly specified) as the compound, how does the Potency read?
**A.** 26

**Q.** Which Potency does the source give for `CCCC(=O)O[C@]1(C(=O)OC)[C@@H](C)CC2C3CCC4=CC(=O)C=CC4(C)[C@@]3(F)[C@@H](O)CC21C` (stereo partly specified) here?
**A.** 175

**Q.** With `CCC(=O)OCC(=O)[C@@]1(OC(=O)CC)[C@@H](C)C[C@H]2[C@@H]3CCC4=CC(=O)C=C[C@]4(C)[C@@]3(F)[C@@H](O)C[C@@]21C` [BETAMETHASONE DIPROPIONATE] as the compound, how does the Potency read?
**A.** 1300

**Q.** For `CCC(=O)O[C@]1(C(=O)CO)[C@@H](C)C[C@H]2[C@@H]3CCC4=CC(=O)C=C[C@]4(C)[C@@]3(F)[C@@H](O)C[C@@]21C`, which Potency is on record?
**A.** 190

**Q.** For `CCC(=O)OCC(=O)[C@@]1(O)[C@@H](C)C[C@H]2[C@@H]3CCC4=CC(=O)C=C[C@]4(C)[C@@]3(F)[C@@H](O)C[C@@]21C`, which Potency is on record?
**A.** 40

**Q.** With `CC(C)C(=O)OCC(=O)[C@@]1(OC(=O)C(C)C)CCC2C3C[C@H](F)C4=CC(=O)C=CC4(C)[C@@]3(F)C(O)CC21C` (stereo partly specified) as the compound, how does the Potency read?
**A.** 720

**Q.** `CC(=O)[C@H]1CC[C@H]2[C@@H]3C[C@H](C)C4=CC(=O)CC[C@]4(C)[C@H]3[C@@H](O)C[C@]12C` [MEDRYSONE] was tested. Which Potency did it give?
**A.** <1

**Q.** How did the Potency turn out when `CC(=O)OCC(=O)[C@@]1(OC(C)=O)CCC2C3C[C@H](F)C4=CC(=O)C=CC4(C)[C@@]3(F)C(O)CC21C` (stereo partly specified) was run?
**A.** 360

**Q.** Which Potency does the source give for `CC(C)C(=O)O[C@]1(C(=O)CO)CCC2C3C[C@H](F)C4=CC(=O)C=CC4(C)[C@@]3(F)C(O)CC21C` (stereo partly specified) here?
**A.** <360

**Q.** For `CC(=O)O[C@]1(C(=O)CCl)[C@@H](C)CC2C3CCC4=CC(=O)C=CC4(C)[C@@]3(F)[C@@H](O)CC21C` (stereo partly specified), which Potency is on record?
**A.** 812

**Q.** Which Potency does the source give for `CCCC(=O)OCC(=O)[C@@]1(O)C(C)CC2C3CCC4=CC(=O)C=CC4(C)[C@@]3(F)C(O)CC21C` (stereo partly specified) here?
**A.** 85

**Q.** With `CCCCC(=O)O[C@]1(C(=O)COC(C)=O)CC[C@H]2[C@@H]3C[C@H](F)C4=CC(=O)CC[C@]4(C)[C@@]3(F)[C@@H](O)C[C@@]21C` as the compound, how does the Potency read?
**A.** 360

**Q.** `C[C@]12C=CC(=O)C=C1[C@@H](F)C[C@@H]1[C@@H]2[C@@H](O)C[C@@]2(C)[C@H]1CC[C@]2(O)C(=O)CO` [FLUPREDNISOLONE] was tested. Which Potency did it give?
**A.** 1

**Q.** How did the Potency turn out when `CCC(=O)O[C@]1(C(=O)O)[C@@H](C)CC2C3CCC4=CC(=O)C=CC4(C)C3(F)[C@@H](O)CC21C` (stereo partly specified) was run?
**A.** <1

**Q.** For `CC(=O)O[C@]1(C(=O)CO)C(C)CC2C3CCC4=CC(=O)C=CC4(C)[C@@]3(F)C(O)CC21C` (stereo partly specified), which Potency is on record?
**A.** 114

**Q.** How did the Potency turn out when `CC(=O)[C@@]1(O)CCC2C3CCC4=CC(=O)CCC4(C)C3C(O)CC21C` (stereo partly specified) was run?
**A.** 0.4

**Q.** For `CC12CCC(=O)C=C1CCC1C2C(O)CC2(C)C1CC[C@]2(O)C(=O)COP(=O)(O)O` (stereo partly specified), which Potency is on record?
**A.** 0.01

**Q.** Which Potency does the source give for `CCC(=O)OCC(=O)[C@@]1(OC(=O)CC)[C@@H](C)C[C@H]2[C@@H]3CCC4=CC(=O)C=C[C@]4(C)[C@@]3(Cl)[C@@H](O)C[C@@]21C` [BECLOMETHASONE DIPROPIONATE] here?
**A.** 500

**Q.** With `COC(=O)[C@@]1(OC(C)=O)[C@@H](C)CC2C3CCC4=CC(=O)C=CC4(C)[C@@]3(F)[C@@H](O)CC21C` (stereo partly specified) as the compound, how does the Potency read?
**A.** 385

**Q.** How did the Potency turn out when `CCC(=O)OCC(=O)[C@@]1(OC(=O)CC)CCC2C3C[C@H](F)C4=CC(=O)C=CC4(C)[C@@]3(F)C(O)CC21C` (stereo partly specified) was run?
**A.** 853

**Q.** Which Potency does the source give for `CCC(=O)O[C@]1(C(=O)CCl)[C@@H](C)C[C@H]2[C@@H]3CCC4=CC(=O)C=C[C@]4(C)[C@@]3(F)[C@@H](O)C[C@@]21C` [CLOBETASOL PROPIONATE] here?
**A.** 1869

**Q.** How did the Potency turn out when `CC(=O)OCC(=O)[C@@]12OC(C)(C)O[C@@H]1C[C@H]1[C@@H]3C[C@H](F)C4=CC(=O)C=C[C@]4(C)[C@@]3(F)[C@@H](O)C[C@@]12C` [FLUOCINONIDE] was run?
**A.** 300

**Q.** For `CCC(=O)O[C@]1(C(=O)CO)[C@@H](C)C[C@H]2[C@@H]3CCC4=CC(=O)C=C[C@]4(C)[C@@]3(Cl)[C@@H](O)C[C@@]21C` [BECLOMETHASONE 17-MONOPROPIONATE], which Potency is on record?
**A.** 360

**Q.** For `CCC(=O)O[C@]1(C(=O)COC(=O)C(C)C)CCC2C3C[C@H](F)C4=CC(=O)C=CC4(C)[C@@]3(F)C(O)CC21C` (stereo partly specified), which Potency is on record?
**A.** 1080

**Q.** `CCCCC(=O)O[C@]1(C(=O)CO)CCC2C3C[C@H](F)C4=CC(=O)C=CC4(C)[C@@]3(F)C(O)CC21C` (stereo partly specified) was tested. Which Potency did it give?
**A.** 360

**Q.** For `CCCCC(=O)O[C@]1(C(=O)CO)[C@@H](C)C[C@H]2[C@@H]3CCC4=CC(=O)C=C[C@]4(C)[C@@]3(F)[C@@H](O)C[C@@]21C` [BETAMETHASONE VALERATE], which Potency is on record?
**A.** 360

**Q.** How did the Potency turn out when `CCCCC(=O)O[C@]1(C(=O)O)[C@@H](C)CC2C3CCC4=CC(=O)C=CC4(C)C3(F)[C@@H](O)CC21C` (stereo partly specified) was run?
**A.** <1

**Q.** Which Potency does the source give for `CCCC(=O)OCC(=O)[C@@]1(OC(=O)CC)CCC2C3C[C@H](F)C4=CC(=O)C=CC4(C)[C@@]3(F)C(O)CC21C` (stereo partly specified) here?
**A.** 1260

**Q.** How did the Potency turn out when `CCCC(=O)O[C@]1(C(=O)CO)CCC2C3C[C@H](F)C4=CC(=O)C=CC4(C)[C@@]3(F)C(O)CC21C` (stereo partly specified) was run?
**A.** <360

**Q.** `CCCCC(=O)O[C@]1(C(=O)CCl)[C@@H](C)C[C@H]2[C@@H]3CCC4=CC(=O)C=C[C@]4(C)[C@@]3(F)[C@@H](O)C[C@@]21C` was tested. Which Potency did it give?
**A.** 91

**Q.** Which Potency does the source give for `CCCC(=O)O[C@]1(C(=O)COC(C)=O)CC[C@H]2[C@@H]3C[C@H](F)C4=CC(=O)C=C[C@]4(C)[C@@]3(F)[C@@H](O)C[C@@]21C` [DIFLUPREDNATE] here?
**A.** 1170

**Q.** `CC(C)C(=O)OC1(C(=O)CCl)[C@@H](C)CC2C3CCC4=CC(=O)C=CC4(C)[C@]3(F)[C@@H](O)CC21C` (stereo partly specified) was tested. Which Potency did it give?
**A.** 378

**Q.** With `CCC(=O)OCC(=O)[C@@]1(OC(=O)C(C)C)CCC2C3C[C@H](F)C4=CC(=O)C=CC4(C)[C@@]3(F)C(O)CC21C` (stereo partly specified) as the compound, how does the Potency read?
**A.** 900

**Q.** For `CC(=O)O[C@]1(C(=O)CO)CCC2C3C[C@H](F)C4=CC(=O)C=CC4(C)[C@@]3(F)C(O)CC21C` (stereo partly specified), which Potency is on record?
**A.** <360

**Q.** For `CC(=O)O[C@]1(C(=O)COC(=O)C(C)C)CCC2C3C[C@H](F)C4=CC(=O)C=CC4(C)[C@@]3(F)C(O)CC21C` (stereo partly specified), which Potency is on record?
**A.** 720

**Q.** How did the Potency turn out when `C[C@H]1C[C@H]2C3CCC4=CC(=O)C=C[C@]4(C)[C@@]3(F)[C@@H](O)C[C@]2(C)[C@@]1(O)C(=O)O` (stereo partly specified) was run?
**A.** <1

**Q.** For `CCCOC(=O)[C@@]1(O)[C@@H](C)CC2C3CCC4=CC(=O)C=CC4(C)C3(F)[C@@H](O)CC21C` (stereo partly specified), which Potency is on record?
**A.** 5

**Q.** `CC1CC2C3CCC4=CC(=O)C=CC4(C)[C@@]3(Cl)C(O)CC2(C)[C@@]1(O)C(=O)CO` (stereo partly specified) was tested. Which Potency did it give?
**A.** 0.8

**Q.** For `CC(=O)O[C@]1(C(C)=O)CCC2C3C[C@H](F)C4=CC(=O)C=CC4(C)[C@@]3(F)C(O)CC21C` (stereo partly specified), which Potency is on record?
**A.** 540

**Q.** `CCCOC(=O)[C@@]1(OC(=O)CCC)[C@@H](C)CC2C3CCC4=CC(=O)C=CC4(C)C3(F)[C@@H](O)CC21C` (stereo partly specified) was tested. Which Potency did it give?
**A.** 40

**Q.** With `CC(C)C(=O)O[C@]1(C(=O)CO)C(C)CC2C3CCC4=CC(=O)C=CC4(C)[C@@]3(F)C(O)CC21C` (stereo partly specified) as the compound, how does the Potency read?
**A.** 470

**Q.** `CCC(=O)O[C@]1(C(=O)OCCl)[C@@H](C)CC2C3CCC4=CC(=O)C=CC4(C)[C@@]3(F)[C@@H](O)CC21C` (stereo partly specified) was tested. Which Potency did it give?
**A.** 400

**Q.** How did the Potency turn out when `CCCC(=O)O[C@]1(C(=O)CO)C(C)CC2C3CCC4=CC(=O)C=CC4(C)[C@@]3(F)C(O)CC21C` (stereo partly specified) was run?
**A.** 168

**Q.** Which Potency does the source give for `CCCC(=O)O[C@]1(C(=O)COC(=O)C(C)C)CCC2C3C[C@H](F)C4=CC(=O)C=CC4(C)[C@@]3(F)C(O)CC21C` (stereo partly specified) here?
**A.** 1080

**Q.** `C[C@@H]1CC2C3CCC4=CC(=O)C=CC4(C)[C@@]3(F)C(O)CC2(C)[C@@]1(O)C(=O)COP(=O)(O)O` (stereo partly specified) was tested. Which Potency did it give?
**A.** 2
